pEC50: −log10 of the molar value. Like-named read-outs stand apart in the source and are kept apart here.
Legend:
[1] = target: human GLP-1R (Homo sapiens (Human), UniProt P43220, L260F); experiment: CHO GLP-1R Clone C6—Assay 2: HTRF cAMP cell-based functional agonist assay (low GLP-1R density); settings: for pEC50: CHO GLP-1R Clone C6, cAMP HTRF, geometric mean; for Emax / Assay 2 Emax (%): CHO GLP-1R Clone C6, relative to saturating concentration of full agonist GLP-1 (1 μM), arithmetic mean; for Emax: read-out: Assay 2 Emax (%)
[2] = target: human GLP-1R (Homo sapiens, UniProt P43220, G168S); experiment: CHO GLP-1R Clone H6—Assay 1: HTRF cAMP cell-based functional agonist assay (high GLP-1R density); settings: for pEC50: read-out: Assay 1 EC50; for pEC50 / EC50: CHO GLP-1R Clone H6, cAMP HTRF, geometric mean; for Emax: read-out: Assay 1 Emax (%), CHO GLP-1R Clone H6; for EC50: Assay 1 EC50 (nM)
[3] = relative to saturating concentration of full agonist GLP-1 (1 μM), arithmetic mean

human GLP-1R (Homo sapiens (Human), UniProt P43220, L260F), sequence (P43220 24-463 L260F): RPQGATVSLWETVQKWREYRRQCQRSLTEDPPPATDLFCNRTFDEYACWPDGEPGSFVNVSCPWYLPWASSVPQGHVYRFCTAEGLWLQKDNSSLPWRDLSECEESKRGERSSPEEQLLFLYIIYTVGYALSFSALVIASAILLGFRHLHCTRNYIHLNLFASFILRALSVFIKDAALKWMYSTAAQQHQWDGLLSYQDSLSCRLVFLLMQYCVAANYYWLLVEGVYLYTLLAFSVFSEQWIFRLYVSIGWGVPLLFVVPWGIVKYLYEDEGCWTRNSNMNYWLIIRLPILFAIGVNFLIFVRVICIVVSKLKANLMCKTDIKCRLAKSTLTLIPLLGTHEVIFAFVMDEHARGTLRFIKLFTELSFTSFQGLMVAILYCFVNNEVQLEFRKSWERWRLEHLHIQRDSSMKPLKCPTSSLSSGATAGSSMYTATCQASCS
human GLP-1R (Homo sapiens, UniProt P43220, G168S), sequence (P43220 24-463 G168S limits assumed): as the sequence (P43220 24-463 L260F) above, with G145S, F237L counted along it

pEC50 [1] | Emax [1] | pEC50 [2] | Emax [2, 3] | EC50 [2] | Assay 1 Emax (%) ([2]; CHO GLP-1R Clone H6, relative to saturating concentration of full agonist GLP-1 (1 μM), arithmetic mean) | Compound | Assay 2 Emax (%) [1]
5.92 | 83% | 7.43 | 69% | – | – | CC[C@H]1CN(c2cccc(OCc3ccc(Cl)cc3F)n2)CCN1Cc1nc2ccc(C(=O)O)cc2n1CCOC [Example 12A-07, 2-{[(2S)-4-{6-[(4-chloro-2-fluorobenzyl)oxy]pyridin-2-yl}-2-ethylpiperazin-1-yl]methyl}-1-(2-methoxyethyl)-1H-benzimidazole-6-carboxylic acid] | –
7.96 | 110% | 9.24 | 86% | – | – | CCn1cncc1Cn1c(CN2CCN(c3cccc(OCc4ccc(C#N)cc4F)n3)C[C@@H]2C)nc2ccc(C(=O)O)cc21 [Example 10A-63] | –
5.85 | – | – | – | 46 nM | 66% | COCCn1c(CN2CCC(c3cccc(OCc4ccc(Cl)cc4F)n3)CC2C)nc2ccc(C(=O)O)cc21 (single isomer, unassigned) [Example 13A-04, cis 2-{[4-{6-[(4-Chloro-2-fluorobenzyl)oxy]pyridin-2-yl}-2-methylpiperidin-1-yl]methyl}-1-(2-methoxyethyl)-1H-benzimidazole-6-carboxylic acid] | 83%
6.42 | 96% | 7.96 | 65% | – | – | O=C(O)c1ccc2nc(CN3CCC(c4cccc(OCc5ccc(Cl)cc5F)n4)CC3)n(CCn3cncn3)c2c1 [Example 11A-17, 2-[(4-{6-[(4-chloro-2-fluorobenzyl)oxy]pyridin-2-yl}piperidin-1-yl)methyl]-1-[2-(1H-1,2,4-triazol-1-yl)ethyl]-1H-benzimidazole-6-carboxylic acid] | –
5.74 | 85% | – | 80% | 70 nM | – | COCCn1c(CN2CC[C@@H](c3cccc(OCc4ccc(Cl)cc4F)n3)[C@H](C)C2)nc2ccc(C(=O)O)cc21 (racemic) [Example 1A-26, rac-2-{[(3S,4R)-4-{6-[(4-chloro-2-fluorobenzyl)oxy]pyridin-2-yl}-3-methylpiperidin-1-yl]methyl}-1-(2-methoxyethyl)-1H-benzimidazole-6-carboxylic acid] | –
7.92 | 98% | 9.03 | 83% | – | – | O=C(O)c1ccc2nc(CN3CCC(c4cccc(OCc5ccc(Cl)cc5F)n4)CC3)n(C[C@@H]3CCO3)c2c1 [Example 3A-01, 2-[(4-{6-[(4-chloro-2-fluorobenzyl)oxy]pyridin-2-yl}piperidin-1-yl)methyl]-1-[(2S)-oxetan-2-ylmethyl]-1H-benzimidazole-6-carboxylic acid] | –
7.42 | 83% | 8.62 | 71% | – | – | O=C(O)c1ccc2nc(CN3CCC(c4cccc(OCc5ccc(F)cc5F)n4)CC3)n(C[C@@H]3CCO3)c2c1 [Example 10A-05, 2-[(4-{6-[(2,4-difluorobenzyl)oxy]pyridin-2-yl}piperidin-1-yl)methyl]-1-[(2S)-oxetan-2-ylmethyl]-1H-benzimidazole-6-carboxylic acid] | –
6.44 | 89% | 7.52 | 77% | – | – | O=C(O)c1ccc2nc(CN3CCC(c4cccc(OCc5ccc(Cl)cc5F)n4)CC3)n(Cc3nnc[nH]3)c2c1 [Example 11A-25, 2-[(4-{6-[(4-chloro-2-fluorobenzyl)oxy]pyridin-2-yl}piperidin-1-yl)methyl]-1-(4H-1,2,4-triazol-3-ylmethyl)-1H-benzimidazole-6-carboxylic acid] | –
6.57 | 92% | 7.85 | 80% | – | – | CCOC(C)Cn1c(CN2CCC(c3cccc(OCc4ccc(Cl)cc4F)n3)CC2)nc2ccc(C(=O)O)cc21 (centres unmarked) [Example 11A-18, 2-[(4-{6-[(4-chloro-2-fluorobenzyl)oxy]pyridin-2-yl}piperidin-1-yl)methyl]-1-(2-ethoxypropyl)-1H-benzimidazole-6-carboxylic acid] | –
7.54 | 74% | 8.57 | 73% | – | – | O=C(O)c1ccc2nc(CN3CCC(c4cccc(OCc5ccc(Cl)cc5F)n4)CC3)n(Cc3ncco3)c2c1 [Example 10A-42, 2-[(4-{6-[(4-chloro-2-fluorobenzyl)oxy]pyridin-2-yl}piperidin-1-yl)methyl]-1-(1,3-oxazol-2-ylmethyl)-1H-benzimidazole-6-carboxylic acid] | –
8.07 | 78% | 9.28 | 70% | – | – | C[C@H]1CN(c2cccc(OCc3ccc(F)cc3F)n2)CCN1Cc1nc2ccc(C(=O)O)cc2n1C[C@@H]1CCO1 [Example 10A-58, 2-{[(2S)-4-{6-[(2,4-difluorobenzyl)oxy]pyridin-2-yl}-2-methylpiperazin-1-yl]methyl}-1-[(2S)-oxetan-2-ylmethyl]-1H-benzimidazole-6-carboxylic acid] | –
7.00 | 81% | 8.22 | 73% | – | – | O=C(O)c1ccc2nc(CN3CCC(c4cccc(OCc5ccc(F)cc5F)n4)CC3)n(Cc3cnco3)c2c1 [Example 10A-44, 2-[(4-{6-[(2,4-difluorobenzyl)oxy]pyridin-2-yl}piperidin-1-yl)methyl]-1-(1,3-oxazol-5-ylmethyl)-1H-benzimidazole-6-carboxylic acid] | –
5.92 | 44% | 6.82 | 74% | – | – | Cn1c(CN2CCC(c3cccc(OCc4ccc(Cl)cc4F)n3)CC2)nc2cnc(C(=O)O)cc21 [Example 2A-03, 2-((4-(6-((4-Chloro-2-fluorobenzyl)oxy)pyridin-2-yl)piperidin-1-yl)methyl)-1-methyl-1H-imidazo[4,5-c]pyridine-6-carboxylic acid] | –
– | 86% | – | 84% | – | – | N#Cc1ccc(COc2cccc(C3CCN(Cc4nc5ccc(C(=O)O)cc5n4Cc4ncco4)CC3)n2)c(F)c1 [Example 7A-01, 2-[(4-{6-[(4-cyano-2-fluorobenzyl)oxy]pyridin-2-yl}piperidin-1-yl)methyl]-1-(1,3-oxazol-2-ylmethyl)-1H-benzimidazole-6-carboxylic acid] | –
6.85 | 82% | 7.92 | 75% | – | – | O=C(O)c1ccc2nc(CN3CCC(c4cccc(OCc5ccc(Cl)cc5F)n4)CC3)n(Cc3cocn3)c2c1 [Example 10A-41, 2-[(4-{6-[(4-chloro-2-fluorobenzyl)oxy]pyridin-2-yl}piperidin-1-yl)methyl]-1-(1,3-oxazol-4-ylmethyl)-1H-benzimidazole-6-carboxylic acid] | –
5.28 | 80% | 6.82 | 68% | – | – | O=C(O)c1ccc2nc(CN3CCC(c4cccc(OCc5ccc(Cl)cc5F)n4)CC3)n(CCC(F)(F)F)c2c1 [Example 11A-73, 2-[(4-{6-[(4-chloro-2-fluorobenzyl)oxy]pyridin-2-yl}piperidin-1-yl)methyl]-1-(3,3,3-trifluoropropyl)-1H-benzimidazole-6-carboxylic acid] | –

Compound | pEC50 [1] | Emax [1] | pEC50 [2] | Emax [2, 3] | EC50 [2] | Assay 1 Emax (%) ([2]; CHO GLP-1R Clone H6, relative to saturating concentration of full agonist GLP-1 (1 μM), arithmetic mean) | Assay 2 Emax (%) [1]
N#Cc1ccc(COc2cccc(C3CCN(Cc4nc5ccc(C(=O)O)cc5n4CC4CCCO4)CC3)n2)cc1 (single isomer, unassigned; enantiomer 1) [Example 14A-01, 2-[(4-{6-[(4-cyanobenzyl)oxy]pyridin-2-yl}piperidin-1-yl)methyl]-1-(tetrahydrofuran-2-ylmethyl)-1H-benzimidazole-6-carboxylic acid,enantiomer 1] | 6.70 | – | 8.25 | – | – | – | 89%

Source: patent US10208019B2, “GLP-1 receptor agonists and uses thereof” (Pfizer Inc., priority 2016, dated 2019)
